# From ChEMBL document CHEMBL1201862, “PubChem BioAssay data set” (2004)
#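 These data come from cells grown in 96-well plates and exposed to compound for 48 hours at five concentrations. The concentration for 50% growth inhibition is given as GI50.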 Activity calls are given as the source filed them. Rule as the data show it: active = GI50 up to about 1.1 µM and inactive = higher.
# Assays:
# Test in all cases: NCI tumour cell line growth inhibition, 48 h
# SN12C = test system: SN12C
# DU-145 = test system: DU-145
# UACC-62 = test system: UACC-62
# Hs-578T = test system: Hs-578T
# OVCAR-4 = test system: OVCAR-4
# NCI-H226 = test system: NCI-H226
# MCF7 = test system: MCF7
# KM12 = test system: KM12
# SR = test system: SR
# NCI/ADR-RES = test system: NCI/ADR-RES
# SK-MEL-2 = test system: SK-MEL-2
# MDA-N = test system: MDA-N
# SK-OV-3 = test system: SK-OV-3
# OVCAR-3 = test system: OVCAR-3
# LOX IMVI = test system: LOX IMVI
# HCT-116 = test system: HCT-116
# CAKI-1 = test system: CAKI-1
# SF-539 = test system: SF-539
# IGROV-1 = test system: IGROV-1
# EKVX = test system: EKVX
Structure (SMILES),GI50 (SN12C),GI50 (DU-145),GI50 (UACC-62),GI50 (Hs-578T),GI50 (OVCAR-4),GI50 (NCI-H226),GI50 (MCF7),GI50 (KM12),GI50 (SR),GI50 (NCI/ADR-RES),GI50 (SK-MEL-2),GI50 (MDA-N),GI50 (SK-OV-3),GI50 (OVCAR-3),GI50 (LOX IMVI),GI50 (HCT-116),GI50 (CAKI-1),GI50 (SF-539),GI50 (IGROV-1),GI50 (EKVX)
C[C@]12CC[C@H]3[C@@H](CCC4=CC(=O)C=C[C@@]43OC(=O)C(F)(F)F)[C@@H]1CCC2=O,> 100 µM (inactive),> 100 µM (inactive),> 85.5 µM (inactive),> 100 µM (inactive),> 100 µM (inactive),> 100 µM (inactive),> 100 µM (inactive),> 100 µM (inactive),> 100 µM (inactive),> 65.8 µM (inactive),> 100 µM (inactive),> 100 µM (inactive),> 100 µM (inactive),> 100 µM (inactive),> 100 µM (inactive),> 34.7 µM (inactive),> 100 µM (inactive),> 100 µM (inactive),> 100 µM (inactive),> 100 µM (inactive)
CC(O)C1(CNc2cc(Cl)nc(N)n2)CCCC1 (stereo not given),> 100 µM (inactive),> 100 µM (inactive),> 100 µM (inactive),> 100 µM (inactive),75.3 µM (inactive),> 100 µM (inactive),> 100 µM (inactive),> 100 µM (inactive),> 100 µM (inactive),> 100 µM (inactive),> 100 µM (inactive),> 100 µM (inactive),> 100 µM (inactive),> 100 µM (inactive),> 100 µM (inactive),> 100 µM (inactive),> 100 µM (inactive),> 100 µM (inactive),> 100 µM (inactive),> 100 µM (inactive)
CCC1(OC(=O)CNC)C(=O)OCc2c1cc1n(c2=O)Cc2cc3ccccc3nc2-1 (stereo not given),< 0.01 µM (active),< 0.01 µM (active),< 0.01 µM (active),0.403 µM (active),0.0977 µM (active),< 0.01 µM (active),< 0.01 µM (active),0.0685 µM (active),< 0.01 µM (active),< 0.01 µM (active),0.155 µM (active),0.0419 µM (active),< 0.01 µM (active),0.0713 µM (active),< 0.01 µM (active),0.015 µM (active),< 0.01 µM (active),< 0.01 µM (active),0.0601 µM (active),0.127 µM (active)
Cc1cc2nnc(C(N)=O)c(N)c2cc1C,> 100 µM (inactive),> 100 µM (inactive),> 100 µM (inactive),30.5 µM (inactive),> 100 µM (inactive),> 100 µM (inactive),> 100 µM (inactive),> 100 µM (inactive),> 100 µM (inactive),> 100 µM (inactive),64.7 µM (inactive),> 100 µM (inactive),42.1 µM (inactive),> 100 µM (inactive),> 100 µM (inactive),> 100 µM (inactive),> 100 µM (inactive),> 100 µM (inactive),> 100 µM (inactive),> 100 µM (inactive)
Nc1nc(Cl)cc(NCC2(CO)COC2)n1,> 100 µM (inactive),> 100 µM (inactive),> 100 µM (inactive),> 100 µM (inactive),> 100 µM (inactive),> 100 µM (inactive),> 100 µM (inactive),> 100 µM (inactive),> 100 µM (inactive),> 100 µM (inactive),> 100 µM (inactive),> 100 µM (inactive),> 100 µM (inactive),> 100 µM (inactive),> 100 µM (inactive),> 100 µM (inactive),> 100 µM (inactive),> 100 µM (inactive),> 100 µM (inactive),> 100 µM (inactive)
C[C@H](CCC1=NCCN1)[C@H]1CC[C@H]2[C@@H]3CC[C@@H]4C[C@H](O)CC[C@]4(C)[C@H]3CC[C@]12C,8.85 µM (inactive),13.9 µM (inactive),2.07 µM (inactive),14.8 µM (inactive),12.9 µM (inactive),7.46 µM (inactive),6.52 µM (inactive),7.59 µM (inactive),2.55 µM (inactive),16.1 µM (inactive),4.49 µM (inactive),10.1 µM (inactive),18.8 µM (inactive),0.394 µM (active),1.95 µM (inactive),4.72 µM (inactive),3.51 µM (inactive),10.3 µM (inactive),8.28 µM (inactive),13.3 µM (inactive)
C/C=C(/C)C(=O)O[C@H]1C(C)=C[C@]23C(=O)[C@@H](C=C(COC(C)=O)[C@@H](O)[C@]12O)[C@H]1[C@@H](C[C@H]3C)[C@@]1(C)OC(=O)/C(C)=C\C,1.69 µM (inactive),2.23 µM (inactive),2.37 µM (inactive),0.0792 µM (active),2.77 µM (inactive),3.07 µM (inactive),2.35 µM (inactive),1.32 µM (inactive),2.67 µM (inactive),2.65 µM (inactive),3 µM (inactive),1.17 µM (inactive),4.19 µM (inactive),3.05 µM (inactive),3.1 µM (inactive),2.14 µM (inactive),2.75 µM (inactive),2.81 µM (inactive),3.2 µM (inactive),2.9 µM (inactive)
